Patent US9095567B2, “Vaccine formulations” (priority 2010, dated 2015)

Tests used:
Type in all cases: cell-based
[1] = system: Staphylococcus aureus, Pseudomonas aeruginosa, Candida albicans, Aspergillus niger; assay: Preservative effectiveness test, single challenge, all challenge organisms (pharmacopeial acceptance criteria); details: for preservative effectiveness after storage: 2-PE at 3.5 to 5.0 mg/dose
Source text: For ascertaining preservative levels according to U.S. and European Pharmacopeias (USP and EP, respectively), the vaccine formation is inoculated once with approximately 10^5 to 10^6 CFU/ml at time 0 (CFU=colony forming units) of:
USP 29 NF 24 Supplement 2 (USP) requires that, after an inoculation of bacterial micro-organism(s), there is at least 1.0 log reduction from the initial calculated count (i.e., at time of inoculation) at 7 days, at least 3.0 log reduction at 14 days from the previous value measured, and no increase at 28 days compared to the previous value measured. For yeast and fungi, the USP requirement is for there to be no increase from time of inoculation at 7, 14 and 28 days.
EP requirements are more stringent. EP 5th Edition 5.6 (5.1.3) requirements for parenteral and ophthalmic preparations has two components: Category A and Category B. Category A (EP-A) requires, for bacteria, at least 2.0 log reduction from the initial calculated count at 6 hours after inoculation, at least 3.0 log reduction from the previous value measured at 24 hours and no recovery at 28 days. Category B (EP-B) requires, for bacteria, at least 1.0 log reduction from the initial calculated count at 24 hours, at least 3.0 log reduction at 7 days from the previous value measured and not more than 0.5 log increase from the previous value measured (i.e., no increase) at 28 days. For yeast and fungi, Category A requires at least 2.0 log reduction at 7 days from the initial calculated count, and no increase at 28 days from the previous measured value; and Category B requires at least 1.0 log reduction from the initial calculated count at 14 days and no increase at 28 days from the previous measured value.
(§1) Thirty milliliters (ml) of each vaccine formulation with and without Thimerosal or 2-PE at indicated concentrations or saline containing Thimerosal at 0.02% were inoculated in triplicates with a suspension of each test organism to achieve an inoculum density of approximately 10^5 to 10^6 CFU/ml at time 0 (CFU=colony forming units). […] Samples were mixed to ensure even distribution of challenged organisms. Another 30 ml of vaccine in triplicate (with and without preservative) were used as a negative control and spiked with the culture media alone to evaluate the inherent contamination that might be present in the sample or media. Each of the three series of vaccines, and positive and negative controls, was then separately incubated at 20 to 25° C. Aliquots (1 ml) of the challenged samples and controls (or their appropriate serial ten fold dilutions) were enumerated by plate count in duplicates at time 0 and at intervals of 6 hours, 24 hours, 7 days, 14 days and 28 days post-inoculation.
(§2) USP 29 NF 24 Supplement 2 (USP) requires that, after an inoculation of bacterial micro-organism(s), there is at least 1.0 log reduction from the initial calculated count (i.e., at time of inoculation) at 7 days, at least 3.0 log reduction at 14 days from the previous value measured and no increase at 28 days from the previous measured value. For yeast and fungi, the USP requirement is for there to be no increase from the time of inoculation to 7, 14 and 28 days.
(§3) EP requirements are more stringent. EP 5th Edition 5.6 (5.1.3) requirements for parenteral and ophthalmic preparations has two components: Category A and Category B. Category A (EP-A) requires, for bacteria, at least 2.0 log reduction from the initial calculated count at 6 hours after inoculation, at least 3.0 log reduction at 24 hours from the previous measured value, and no recovery at 28 days. Category B (EP-B) requires, for bacteria, at least 1.0 log reduction at 24 hours from the initial calculated count, at least 3.0 log reduction at 7 days from the previous value measured and not more than 0.5 log increase at 28 days from the previous value measured (i.e., no increase).

[2] = system: Aspergillus niger (ATCC #16404); assay: Preservative effectiveness test, single challenge
Source text: (§4) To test for preservative effectiveness, aliquots of vaccine were inoculated with the following organisms:
as §1, §2
as §3, with “increase). For yeast and fungi, Category A requires at least 2.0 log reduction at 7 days and no increase from the previous value measured at 28 days, and Category B requires at least 1.0 log reduction at 14 days and no increase from the previous value measured at 28 days.” for “increase).”
(§5) Plates containing <300 CFU for bacteria or <100 CFU for yeast or mold were used during enumeration. For single challenge studies, arithmetic average count of all surviving micro-organisms in triplicate and on duplicate plates (6 values per time point) plus their diluted samples were measured and normalized as CFU/ml. The results are expressed as mean log10 CFU/ml reduction (compared to time 0). In this case, the count of surviving micro-organisms is evaluated at time 0 as the baseline and compared to incubation time of 6 hours, 24 hours, 7 days, 14 days and 28 days.

E. coli = assay: Preservative effectiveness test, single challenge; details: Prev(e)nar 13 formulation, 20 to 25° C.
Source text: as §4, §1, §2
as §3, with “increase). For yeast and fungi, Category A requires at least 2.0 log reduction at 7 days and no increase from the previous value measured at 28 days, and Category B requires at least 1.0 log reduction at 14 days and no increase from the previous value measured at 28 days.” for “increase).”
as §5

[3] = system: Pseudomonas aeruginosa (ATCC #9027); assay: Preservative effectiveness test, single challenge; details: Prev(e)nar 13 formulation, 20 to 25° C.
Source text: as §4, §1, §2
as §3, with “increase). For yeast and fungi, Category A requires at least 2.0 log reduction at 7 days and no increase from the previous value measured at 28 days, and Category B requires at least 1.0 log reduction at 14 days and no increase from the previous value measured at 28 days.” for “increase).”
as §5

[4] = Thimerosal at 0.01% in Prev(e)nar 13 vaccine formulation, single challenge
[5] = Thimerosal at 0.02% (50 μg mercury per dose), single challenge
[6] = Thimerosal at 0.04% (100 μg mercury per dose), single challenge
[7] = 2-PE at 2.5 mg/dose, single challenge
[8] = 5 mg/dose 2-PE in Prev(e)nar 13, single challenge
[9] = Prev(e)nar 13 formulation, single challenge, 20 to 25° C.

For `C[CH2][Hg][S]c1ccccc1C(=O)[O-].[Na+]` [Thimerosal], the “contamination levels of all four inoculated micro-organisms” value ([1]; 0.01% Thimerosal in Prev(e)nar 13, single challenge, 20-25° C., 28 days) was “reduced”, the “European acceptance criteria EP-A” value [1, 4] was “did not meet” and the “European acceptance criteria EP-B” value [1, 4] was “did not meet”. For the same compound, the “acceptance limits established by the Japanese Pharmacopoeia” value [1, 4] was “did pass”, the “acceptance limits established by the U.S. Pharmacopoeia” value [1, 4] was “did pass” and the “EP acceptance criteria A” value [1, 5] was “not”. For the same compound, the “EP acceptance criteria B” value [1, 5] was “met”, the “EP acceptance criteria A” value [1, 6] was “not” and the “EP acceptance criteria B” value [1, 6] was “met”.

For `OCCOc1ccccc1` [2-PE, 2-phenoxyethanol], the “EP-A anti-microbial effectiveness acceptance criteria” value [1] was “met”, the “EP-B anti-microbial effectiveness acceptance criteria” value [1] was “met” and the “EP acceptance criteria A” value [1, 7] was “failed”. For the same compound, the “EP acceptance criteria B” value [1, 7] was “failed”, the “preservative acceptance criteria EP-B” value ([1]; 2-PE at 3.5 mg/dose, single challenge) was “meet” and the “preservative acceptance criteria EP-B” value ([1]; 2-PE at 5 mg/dose, single challenge) was “meet”. For the same compound, the “preservative effectiveness after storage” value ([1]; formulations stored at 2-8° C. for two and a half years) was “remained persistent”, the “preservative effectiveness after storage” value ([1]; formulations stored at 37° C. for a month) was “remained persistent” and the “EP acceptance criteria B” value ([1]; 2-PE at concentrations of 3.5 to 5.5 mg/dose, single challenge) was “met”. The “effectiveness as a preservative compared with Thimerosal” value ([1]; Prev(e)nar 13 formulation, single challenge) was “more effective”, the “effectiveness as a preservative against A. niger compared with Thimerosal” value [2, 8] was “less effective” and the “rate of decline of A. niger contamination compared to Thimerosal” value [2, 8] was “slower”. For the same compound, the “EP (EP-B) vaccine safety requirements, A. niger” value [2, 9] was “Fails”, the “USP vaccine safety requirements, A. niger” value [2, 9] was “Meets” and the “EP (EP-B) vaccine safety requirements, E. coli” value (E. coli) was “Fails”. The “USP vaccine safety requirements, E. coli” value (E. coli) was “Meets”, the “EP (EP-B) vaccine safety requirements, P. aeruginosa” value [3] was “Fails” and the “USP vaccine safety requirements, P. aeruginosa” value [3] was “Meets”.
